Values quoted from earlier work as cited in patent US20210145763A1, “LOW THC HEMP EXTRACT AND METHOD OF TREATMENT OR PREVENTION OF AN EYE DISEASE” (EYE CO PTY LTD, priority 2018, published 2021).

Key:
glucocorticoid receptor = biological target: T1, glucocorticoid receptor (Homo sapiens, UniProt P04150); conditions: relative potency, hydrocortisone = 1
T1 sequence (P04150 1-777): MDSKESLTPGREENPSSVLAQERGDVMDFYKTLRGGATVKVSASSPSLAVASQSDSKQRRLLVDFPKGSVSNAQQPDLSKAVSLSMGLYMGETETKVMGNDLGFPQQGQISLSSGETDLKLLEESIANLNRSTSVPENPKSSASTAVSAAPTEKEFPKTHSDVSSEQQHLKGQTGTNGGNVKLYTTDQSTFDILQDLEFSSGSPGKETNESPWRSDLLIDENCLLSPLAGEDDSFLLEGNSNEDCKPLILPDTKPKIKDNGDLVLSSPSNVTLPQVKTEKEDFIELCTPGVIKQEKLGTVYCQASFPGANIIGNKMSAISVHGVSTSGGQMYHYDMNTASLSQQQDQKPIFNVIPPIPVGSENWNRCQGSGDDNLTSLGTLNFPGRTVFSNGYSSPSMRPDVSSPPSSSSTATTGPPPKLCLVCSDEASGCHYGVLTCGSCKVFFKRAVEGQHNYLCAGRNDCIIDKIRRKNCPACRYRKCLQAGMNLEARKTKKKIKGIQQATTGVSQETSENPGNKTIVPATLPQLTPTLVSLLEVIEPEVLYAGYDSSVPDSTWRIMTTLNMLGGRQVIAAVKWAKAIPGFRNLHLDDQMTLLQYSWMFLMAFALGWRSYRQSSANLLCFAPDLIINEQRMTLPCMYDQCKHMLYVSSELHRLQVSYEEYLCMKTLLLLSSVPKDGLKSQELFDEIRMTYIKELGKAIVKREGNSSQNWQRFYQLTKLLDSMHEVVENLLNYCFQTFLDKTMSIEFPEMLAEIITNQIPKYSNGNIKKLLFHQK

[1] = biological target: T2, mineralocorticoid receptor (Homo sapiens, UniProt P08235); conditions: relative potency, hydrocortisone = 1
T2 sequence (P08235 1-984): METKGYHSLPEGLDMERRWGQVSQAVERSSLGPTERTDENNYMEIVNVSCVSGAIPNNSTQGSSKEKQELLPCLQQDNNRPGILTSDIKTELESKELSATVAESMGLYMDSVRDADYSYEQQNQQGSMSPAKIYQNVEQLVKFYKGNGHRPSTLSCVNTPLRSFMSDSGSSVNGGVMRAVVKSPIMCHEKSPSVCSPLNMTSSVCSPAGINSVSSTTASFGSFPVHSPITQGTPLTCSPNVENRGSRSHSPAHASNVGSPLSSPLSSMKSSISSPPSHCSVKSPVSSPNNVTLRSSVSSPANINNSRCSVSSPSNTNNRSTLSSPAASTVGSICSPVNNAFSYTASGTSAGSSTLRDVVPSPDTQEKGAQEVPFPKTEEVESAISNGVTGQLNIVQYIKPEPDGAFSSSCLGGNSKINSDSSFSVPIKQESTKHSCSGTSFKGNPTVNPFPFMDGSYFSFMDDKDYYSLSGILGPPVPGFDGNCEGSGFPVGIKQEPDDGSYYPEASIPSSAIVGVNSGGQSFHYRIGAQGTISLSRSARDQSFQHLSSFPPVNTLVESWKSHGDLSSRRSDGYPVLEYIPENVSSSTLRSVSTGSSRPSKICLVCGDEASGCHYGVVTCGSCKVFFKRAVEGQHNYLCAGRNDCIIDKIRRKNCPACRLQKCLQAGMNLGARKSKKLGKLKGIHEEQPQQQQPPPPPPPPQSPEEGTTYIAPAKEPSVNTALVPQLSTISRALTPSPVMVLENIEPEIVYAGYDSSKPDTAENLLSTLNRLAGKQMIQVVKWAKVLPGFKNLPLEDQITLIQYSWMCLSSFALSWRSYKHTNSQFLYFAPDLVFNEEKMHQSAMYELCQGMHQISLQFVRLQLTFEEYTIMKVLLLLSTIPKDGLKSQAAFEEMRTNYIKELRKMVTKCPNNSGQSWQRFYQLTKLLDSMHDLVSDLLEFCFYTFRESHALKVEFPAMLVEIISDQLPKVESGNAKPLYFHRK

[2] = in vivo

| SMILES | GR potency (glucocorticoid receptor) | MR potency [1] | Duration of action (t1/2 in hours) [2] |
| --- | --- | --- | --- |
| C[C@]12CCC(=O)C=C1CC[C@@H]1[C@@H]2[C@@H](O)C[C@]2(C=O)[C@@H](C(=O)CO)CC[C@@H]12 [Aldosterone] | 0.3 | 200-1000 | – |
| C[C@]12CCC(=O)C=C1CC[C@@H]1[C@@H]2C(=O)C[C@@]2(C)[C@H]1CC[C@]2(O)C(=O)CO [Cortisone] | 0.8 | 0.8 | – |
| CC(=O)OCC(=O)[C@H]1CC[C@H]2[C@@H]3CCC4=CC(=O)CC[C@]4(C)[C@H]3CC[C@]12C [Deoxycorticosterone acetate (DOCA), Deoxycorticosterone acetate] | 0 | 20 | – |
| CC(=O)OCC(=O)[C@@]1(O)CC[C@H]2[C@@H]3CCC4=CC(=O)CC[C@]4(C)[C@@]3(F)[C@@H](O)C[C@@]21C [Fludrocortisone acetate] | – | 200 | – |
| C[C@]12CCC(=O)C=C1CC[C@@H]1[C@@H]2[C@@H](O)C[C@@]2(C)[C@H]1CC[C@]2(O)C(=O)CO [Hydrocortisone (cortisol), Hydrocortisone] | 1 | 1 | – |
| C[C@H]1C[C@@H]2[C@H]([C@@H](O)C[C@@]3(C)[C@H]2CC[C@]3(O)C(=O)CO)[C@@]2(C)C=CC(=O)C=C12 [Methylprednisolone] | – | – | 18 to 40 h |
| C[C@]12C=CC(=O)C=C1CC[C@@H]1[C@@H]2[C@@H](O)C[C@@]2(C)[C@H]1CC[C@]2(O)C(=O)CO [Prednisolone] | 4 | 0.8 | 16 to 36 h |
| C[C@]12C=CC(=O)C=C1CC[C@@H]1[C@@H]2C(=O)C[C@@]2(C)[C@H]1CC[C@]2(O)C(=O)CO [Prednisone] | – | 0.8 | 16 to 36 h |
| C[C@]12C=CC(=O)C=C1CC[C@H]1[C@@H]3C[C@@H](O)[C@](O)(C(=O)CO)[C@@]3(C)C[C@H](O)[C@@]12F [Triamcinolone] | 5 | 0 | 12 to 36 h |
